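Step 1: Grow cells in 96-well plates. Step 2: Expose to compound for 48 hours at 5 concentrations. Step 3: Interpolate endpoints linearly; if unreached, use highest concentration. GI50 is the concentration that inhibits growth by half. TGI is the concentration that stops growth completely.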
Experiments:
Assay in all cases: growth of human tumour cells (NCI), 48 h
786-0 renal = tested on: 786-0 renal
A498 renal = tested on: A498 renal
A549 NSCLC = tested on: A549 NSCLC
ACHN renal = tested on: ACHN renal
BT-549 breast = tested on: BT-549 breast
CAKI-1 renal = tested on: CAKI-1 renal
CCRF-CEM leukemia = tested on: CCRF-CEM leukemia
COLO 205 colon = tested on: COLO 205 colon
DU-145 prostate = tested on: DU-145 prostate
EKVX NSCLC = tested on: EKVX NSCLC
HCC-2998 colon = tested on: HCC-2998 colon
HCT-116 colon = tested on: HCT-116 colon
HCT-15 colon = tested on: HCT-15 colon
HL-60(TB) leukemia = tested on: HL-60(TB) leukemia
HOP-62 NSCLC = tested on: HOP-62 NSCLC
HOP-92 NSCLC = tested on: HOP-92 NSCLC
HT29 colon = tested on: HT29 colon
IGROV1 ovarian = tested on: IGROV1 ovarian
K-562 leukemia = tested on: K-562 leukemia
KM12 colon = tested on: KM12 colon
LOX IMVI melanoma = tested on: LOX IMVI melanoma
M14 melanoma = tested on: M14 melanoma
MALME-3M melanoma = tested on: MALME-3M melanoma
MCF7 breast = tested on: MCF7 breast
MDA-MB-231 breast = tested on: MDA-MB-231 breast
MDA-MB-435 = tested on: MDA-MB-435
MOLT-4 leukemia = tested on: MOLT-4 leukemia
NCI-H226 lung = tested on: NCI-H226 lung
NCI-H23 lung = tested on: NCI-H23 lung
NCI-H460 lung = tested on: NCI-H460 lung
NCI-H522 lung = tested on: NCI-H522 lung
NCI/ADR-RES ovarian = tested on: NCI/ADR-RES ovarian
OVCAR-3 ovarian = tested on: OVCAR-3 ovarian
OVCAR-4 ovarian = tested on: OVCAR-4 ovarian
OVCAR-5 ovarian = tested on: OVCAR-5 ovarian
OVCAR-8 ovarian = tested on: OVCAR-8 ovarian
PC-3 prostate = tested on: PC-3 prostate
RXF 393 renal = tested on: RXF 393 renal
SF-268 CNS = tested on: SF-268 CNS
SF-295 CNS = tested on: SF-295 CNS
SF-539 CNS = tested on: SF-539 CNS
SK-MEL-2 melanoma = tested on: SK-MEL-2 melanoma
SK-MEL-28 melanoma = tested on: SK-MEL-28 melanoma
SK-MEL-5 melanoma = tested on: SK-MEL-5 melanoma
SK-OV-3 ovarian = tested on: SK-OV-3 ovarian
SN12C renal = tested on: SN12C renal
SNB-19 CNS = tested on: SNB-19 CNS
SNB-75 CNS = tested on: SNB-75 CNS
SW-620 colon = tested on: SW-620 colon
T-47D breast = tested on: T-47D breast
TK-10 renal = tested on: TK-10 renal
U251 CNS = tested on: U251 CNS
UACC-257 melanoma = tested on: UACC-257 melanoma
UACC-62 melanoma = tested on: UACC-62 melanoma
UO-31 renal = tested on: UO-31 renal

`FC(F)(F)c1cccc(Oc2ccc(Nc3ncnc4ccc(OCCCN5CCOCC5)cc34)cc2Cl)c1` gave a GI50 (786-0 renal) of 1510 nM, a TGI (786-0 renal) of 3110 nM and a GI50 (A498 renal) of 2370 nM. The TGI (A498 renal) was 12800 nM, the GI50 (A549 NSCLC) was 1880 nM and the TGI (A549 NSCLC) was 5640 nM. For the same molecule, the GI50 (ACHN renal) was 1620 nM, the TGI (ACHN renal) was 11100 nM and the GI50 (BT-549 breast) was 3090 nM. The TGI (BT-549 breast) was 16700 nM, the GI50 (CAKI-1 renal) was 1340 nM and the TGI (CAKI-1 renal) was 6620 nM. The GI50 (CCRF-CEM leukemia) was 2770 nM, the TGI (CCRF-CEM leukemia) was 11200 nM and the GI50 (COLO 205 colon) was 2000 nM. The TGI (COLO 205 colon) was 4470 nM, the GI50 (DU-145 prostate) was 2420 nM and the TGI (DU-145 prostate) was 10300 nM. For the same molecule, the GI50 (EKVX NSCLC) was 872 nM, the TGI (EKVX NSCLC) was 8470 nM and the GI50 (HCC-2998 colon) was 1720 nM. It also gave a TGI (HCC-2998 colon) of 3340 nM, a GI50 (HCT-116 colon) of 1620 nM and a TGI (HCT-116 colon) of 3080 nM. The GI50 (HCT-15 colon) was 1480 nM, the TGI (HCT-15 colon) was 3160 nM and the GI50 (HL-60(TB) leukemia) was 2030 nM. It also gave a TGI (HL-60(TB) leukemia) of 4880 nM, a GI50 (HOP-62 NSCLC) of 2330 nM and a TGI (HOP-62 NSCLC) of 5180 nM. For the same molecule, the GI50 (HOP-92 NSCLC) was 1760 nM, the TGI (HOP-92 NSCLC) was 7820 nM and the GI50 (HT29 colon) was 1750 nM. It also gave a TGI (HT29 colon) of 3930 nM, a GI50 (IGROV1 ovarian) of 1010 nM and a TGI (IGROV1 ovarian) of 3160 nM. The GI50 (K-562 leukemia) was 1500 nM, the TGI (K-562 leukemia) was 5470 nM and the GI50 (KM12 colon) was 2290 nM. For the same molecule, the TGI (KM12 colon) was 5590 nM, the GI50 (LOX IMVI melanoma) was 1710 nM and the TGI (LOX IMVI melanoma) was 3450 nM. The GI50 (M14 melanoma) was 1750 nM, the TGI (M14 melanoma) was 3510 nM and the GI50 (MALME-3M melanoma) was 1600 nM. For the same molecule, the TGI (MALME-3M melanoma) was 3070 nM, the GI50 (MCF7 breast) was 1740 nM and the TGI (MCF7 breast) was 5170 nM. The GI50 (MDA-MB-231 breast) was 1800 nM, the TGI (MDA-MB-231 breast) was 3720 nM and the GI50 (MDA-MB-435) was 1630 nM. The TGI (MDA-MB-435) was 3390 nM, the GI50 (MOLT-4 leukemia) was 1970 nM and the TGI (MOLT-4 leukemia) was 6410 nM. The GI50 (NCI-H226 lung) was 15000 nM, the TGI (NCI-H226 lung) was 41000 nM and the GI50 (NCI-H23 lung) was 3190 nM. It also gave a TGI (NCI-H23 lung) of 13400 nM, a GI50 (NCI-H460 lung) of 1900 nM and a TGI (NCI-H460 lung) of 3560 nM. For the same molecule, the GI50 (NCI-H522 lung) was 833 nM, the TGI (NCI-H522 lung) was 3300 nM and the GI50 (NCI/ADR-RES ovarian) was 2820 nM. For the same molecule, the TGI (NCI/ADR-RES ovarian) was 13800 nM, the GI50 (OVCAR-3 ovarian) was 1460 nM and the TGI (OVCAR-3 ovarian) was 3560 nM. The GI50 (OVCAR-4 ovarian) was 2520 nM, the TGI (OVCAR-4 ovarian) was 12700 nM and the GI50 (OVCAR-5 ovarian) was 2450 nM. For the same molecule, the TGI (OVCAR-5 ovarian) was 7760 nM, the GI50 (OVCAR-8 ovarian) was 3220 nM and the TGI (OVCAR-8 ovarian) was 21200 nM. For the same molecule, the GI50 (PC-3 prostate) was 2400 nM, the TGI (PC-3 prostate) was 8580 nM and the GI50 (RXF 393 renal) was 1760 nM. It also gave a TGI (RXF 393 renal) of 4030 nM, a GI50 (SF-268 CNS) of 2060 nM and a TGI (SF-268 CNS) of 6820 nM. For the same molecule, the GI50 (SF-295 CNS) was 1750 nM, the TGI (SF-295 CNS) was 3490 nM and the GI50 (SF-539 CNS) was 1860 nM. The TGI (SF-539 CNS) was 3330 nM, the GI50 (SK-MEL-2 melanoma) was 2540 nM and the TGI (SK-MEL-2 melanoma) was 6100 nM. For the same molecule, the GI50 (SK-MEL-28 melanoma) was 1640 nM, the TGI (SK-MEL-28 melanoma) was 3010 nM and the GI50 (SK-MEL-5 melanoma) was 1750 nM. It also gave a TGI (SK-MEL-5 melanoma) of 3150 nM, a GI50 (SK-OV-3 ovarian) of 1380 nM and a TGI (SK-OV-3 ovarian) of 15500 nM. The GI50 (SN12C renal) was 2200 nM, the TGI (SN12C renal) was 11800 nM and the GI50 (SNB-19 CNS) was 2340 nM. For the same molecule, the TGI (SNB-19 CNS) was 7150 nM, the GI50 (SNB-75 CNS) was 1450 nM and the TGI (SNB-75 CNS) was 7330 nM. It also gave a GI50 (SW-620 colon) of 1690 nM, a TGI (SW-620 colon) of 3230 nM and a GI50 (T-47D breast) of 1290 nM. The TGI (T-47D breast) was 6350 nM, the GI50 (TK-10 renal) was 2020 nM and the TGI (TK-10 renal) was 9740 nM. For the same molecule, the GI50 (U251 CNS) was 1900 nM, the TGI (U251 CNS) was 4190 nM and the GI50 (UACC-257 melanoma) was 2030 nM. It also gave a TGI (UACC-257 melanoma) of 4520 nM, a GI50 (UACC-62 melanoma) of 1700 nM and a TGI (UACC-62 melanoma) of 3130 nM. It also gave a GI50 (UO-31 renal) of 1190 nM and a TGI (UO-31 renal) of 2500 nM.
`COC1=CC(c2ccc[nH]2)=N/C1=C\c1[nH]c(C)c(CC(=O)NCc2ccccc2)c1C` gave a GI50 (A498 renal) of 1280 nM, a TGI (A498 renal) of 2710 nM and a GI50 (A549 NSCLC) of 1660 nM. The TGI (A549 NSCLC) was 3150 nM, the GI50 (ACHN renal) was 1750 nM and the TGI (ACHN renal) was 3280 nM. It also gave a GI50 (BT-549 breast) of 1410 nM, a TGI (BT-549 breast) of 3060 nM and a GI50 (CAKI-1 renal) of 1480 nM. For the same molecule, the TGI (CAKI-1 renal) was 2850 nM, the GI50 (COLO 205 colon) was 1380 nM and the TGI (COLO 205 colon) was 2980 nM. The GI50 (DU-145 prostate) was 1390 nM, the TGI (DU-145 prostate) was 2820 nM and the GI50 (EKVX NSCLC) was 1060 nM. It also gave a TGI (EKVX NSCLC) of 2470 nM, a GI50 (HCC-2998 colon) of 1550 nM and a TGI (HCC-2998 colon) of 3070 nM. For the same molecule, the GI50 (HCT-15 colon) was 1060 nM, the TGI (HCT-15 colon) was 2450 nM and the GI50 (HL-60(TB) leukemia) was 1630 nM. It also gave a TGI (HL-60(TB) leukemia) of 3470 nM, a GI50 (HOP-62 NSCLC) of 1510 nM and a TGI (HOP-62 NSCLC) of 2950 nM. For the same molecule, the GI50 (HOP-92 NSCLC) was 1400 nM, the TGI (HOP-92 NSCLC) was 2940 nM and the GI50 (KM12 colon) was 1120 nM. It also gave a TGI (KM12 colon) of 2590 nM, a GI50 (MDA-MB-435) of 1680 nM and a TGI (MDA-MB-435) of 3230 nM. For the same molecule, the GI50 (OVCAR-3 ovarian) was 1460 nM, the TGI (OVCAR-3 ovarian) was 2910 nM and the GI50 (OVCAR-4 ovarian) was 1350 nM. The TGI (OVCAR-4 ovarian) was 2930 nM, the GI50 (PC-3 prostate) was 1100 nM and the TGI (PC-3 prostate) was 2600 nM. It also gave a GI50 (RXF 393 renal) of 1550 nM, a TGI (RXF 393 renal) of 2950 nM and a GI50 (SF-295 CNS) of 1470 nM. It also gave a TGI (SF-295 CNS) of 2890 nM, a GI50 (SF-539 CNS) of 1890 nM and a TGI (SF-539 CNS) of 3510 nM. For the same molecule, the GI50 (SK-MEL-2 melanoma) was 1710 nM, the TGI (SK-MEL-2 melanoma) was 3290 nM and the GI50 (SK-MEL-5 melanoma) was 1530 nM. For the same molecule, the TGI (SK-MEL-5 melanoma) was 2890 nM, the GI50 (SK-OV-3 ovarian) was 1870 nM and the TGI (SK-OV-3 ovarian) was 3390 nM. The GI50 (SNB-75 CNS) was 1510 nM, the TGI (SNB-75 CNS) was 2890 nM and the GI50 (TK-10 renal) was 1750 nM. The TGI (TK-10 renal) was 3240 nM, the GI50 (U251 CNS) was 1230 nM and the TGI (U251 CNS) was 2490 nM. For the same molecule, the GI50 (UACC-257 melanoma) was 1720 nM, the TGI (UACC-257 melanoma) was 3170 nM and the GI50 (UO-31 renal) was 1640 nM. It also gave a TGI (UO-31 renal) of 3160 nM.

Source: PubChem BioAssay (NCI)
